Data on 21 compounds can be found in patent US20090018134A1, “Compounds - 945” (AstraZeneca AB, priority 2007, published 2009).

T1 sequence (P42345 1362-2549): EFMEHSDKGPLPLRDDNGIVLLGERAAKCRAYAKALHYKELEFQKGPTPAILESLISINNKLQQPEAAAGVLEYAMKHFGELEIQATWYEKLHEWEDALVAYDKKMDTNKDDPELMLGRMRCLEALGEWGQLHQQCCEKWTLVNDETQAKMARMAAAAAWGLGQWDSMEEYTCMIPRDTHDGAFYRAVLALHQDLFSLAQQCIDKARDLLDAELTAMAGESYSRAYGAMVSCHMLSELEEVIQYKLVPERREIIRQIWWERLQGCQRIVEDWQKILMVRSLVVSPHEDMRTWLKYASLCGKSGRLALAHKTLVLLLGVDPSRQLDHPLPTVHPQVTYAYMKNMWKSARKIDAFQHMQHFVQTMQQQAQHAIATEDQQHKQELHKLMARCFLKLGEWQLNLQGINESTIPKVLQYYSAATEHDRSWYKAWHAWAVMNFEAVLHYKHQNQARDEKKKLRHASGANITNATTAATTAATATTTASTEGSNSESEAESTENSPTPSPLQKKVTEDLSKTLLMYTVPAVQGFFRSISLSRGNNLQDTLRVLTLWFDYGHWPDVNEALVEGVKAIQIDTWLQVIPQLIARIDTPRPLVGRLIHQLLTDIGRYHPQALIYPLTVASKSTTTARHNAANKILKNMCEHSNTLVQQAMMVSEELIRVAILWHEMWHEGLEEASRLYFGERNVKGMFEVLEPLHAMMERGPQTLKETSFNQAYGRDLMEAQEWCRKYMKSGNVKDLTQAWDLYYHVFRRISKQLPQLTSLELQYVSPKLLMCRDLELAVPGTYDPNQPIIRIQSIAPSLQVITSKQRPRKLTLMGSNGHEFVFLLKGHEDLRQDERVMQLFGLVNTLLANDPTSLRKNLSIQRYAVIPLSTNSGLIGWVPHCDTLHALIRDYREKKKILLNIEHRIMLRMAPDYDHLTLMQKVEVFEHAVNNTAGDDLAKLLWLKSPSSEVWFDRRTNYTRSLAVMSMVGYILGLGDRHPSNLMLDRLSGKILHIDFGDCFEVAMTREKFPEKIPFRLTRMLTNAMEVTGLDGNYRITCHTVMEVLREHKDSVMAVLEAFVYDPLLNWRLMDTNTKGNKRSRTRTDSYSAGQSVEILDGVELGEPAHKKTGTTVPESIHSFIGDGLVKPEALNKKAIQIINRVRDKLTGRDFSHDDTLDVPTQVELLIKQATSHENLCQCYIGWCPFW

The experiment addresses T1, mTOR (Homo sapiens, UniProt P42345).
T1 construct: FLAG; made in house
The experiment is described as follows: In Vitro mTOR Kinase Assay (Echo), Test (a)(ii). The experiment is classed as biochemical. As to conditions: table of enzyme assay Test (a)(ii); read-out: Test (a)(ii) IC50. A digest of the protocol: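 AlphaScreen read-out: biotinylated substrate phosphorylation was detected with anti-p70 S6K (T389) 1A5 antibody, Protein A acceptor and streptavidin donor beads after overnight dark incubation at room temperature. Enzyme was FLAG-mTOR 1362-2549 from stable HEK293 cells.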
Turning to `CCS(=O)(=O)C1(c2cc(N3CCOC[C@@H]3C)nc(-c3ccc(NC(=O)NCCCO)cc3)n2)CCC1` [Example 87b, 1-[4-[4-(1-ethylsulfonylcyclobutyl)-6-[(3S)-3-methylmorpholin-4-yl]pyrimidin-2-yl]phenyl]-3-(3-hydroxypropyl)urea], the IC50 was 17.7 nM.
The result for `CCS(=O)(=O)C1(c2cc(N3CCOC[C@@H]3C)nc(-c3ccc(NC(=O)NC)cc3)n2)CCC1` [Example 87c, 1-[4-[4-(1-ethylsulfonylcyclobutyl)-6-[(3S)-3-methylmorpholin-4-yl]pyrimidin-2-yl]phenyl]-3-methylurea] reads 7.75 nM.
The result for `CCS(=O)(=O)C1(c2cc(N3CCOC[C@@H]3C)nc(-c3ccc(NC(=O)NC(C)(C)CO)cc3)n2)CCC1` [Example 87d, 1-[4-[4-(1-ethylsulfonylcyclobutyl)-6-[(3S)-3-methylmorpholin-4-yl]pyrimidin-2-yl]phenyl]-3-(1-hydroxy-2-methylpropan-2-yl)urea] reads 17.7 nM; that for `CCS(=O)(=O)C1(c2cc(N3CCOC[C@@H]3C)nc(-c3ccc(NC(=O)N[C@@H](C)CO)cc3)n2)CCC1` [Example 87e, 1-[4-[4-(1-ethylsulfonylcyclobutyl)-6-[(3S)-3-methylmorpholin-4-yl]pyrimidin-2-yl]phenyl]-3-[(2S)-1-hydroxypropan-2-yl]urea], 10.3 nM.
For `CCS(=O)(=O)C1(c2cc(N3CCOC[C@@H]3C)nc(-c3ccc(NC(=O)N[C@H](C)CO)cc3)n2)CCC1` [Example 87f, 1-[4-[4-(1-ethylsulfonylcyclobutyl)-6-[(3S)-3-methylmorpholin-4-yl]pyrimidin-2-yl]phenyl]-3-[(2R)-1-hydroxypropan-2-yl]urea] the value was 9.07 nM; for `CCS(=O)(=O)C1(c2cc(N3CCOC[C@@H]3C)nc(-c3ccc(NC(=S)NCCCO)cc3)n2)CCC1` [Example 88, 1-[4-[4-(1-Ethylsulfonylcyclobutyl)-6-[(3S)-3-methylmorpholin-4-yl]pyrimidin-2-yl]phenyl]-3-(3-hydroxypropyl)thiourea], 32.1 nM.
In the case of `CCS(=O)(=O)C1(c2cc(N3CCOC[C@@H]3C)nc(-c3ccc(NC(=S)NCCO)cc3)n2)CCC1` [Example 88a, 1-[4-[4-(1-ethylsulfonylcyclobutyl)-6-[(3S)-3-methylmorpholin-4-yl]pyrimidin-2-yl]phenyl]-3-(2-hydroxyethyl)thiourea], the IC50 was 4.48 nM.
For `CCS(=O)(=O)C1(c2cc(N3CCOC[C@@H]3C)nc(-c3ccc(NC(=S)NCc4ncc[nH]4)cc3)n2)CCC1` [Example 88b, 1-[4-[4-(1-ethylsulfonylcyclobutyl)-6-[(3S)-3-methylmorpholin-4-yl]pyrimidin-2-yl]phenyl]-3-(1H-imidazol-2-ylmethyl)thiourea] the value was 56.7 nM; for `CCS(=O)(=O)C1(c2cc(N3CCOC[C@@H]3C)nc(-c3ccc(NC(=S)NCCCO)cc3)n2)CC1` [Example 88c, 1-[4-[4-(1-ethylsulfonylcyclopropyl)-6-[(3S)-3-methylmorpholin-4-yl]pyrimidin-2-yl]phenyl]-3-(3-hydroxypropyl)thiourea], 47 nM.
For `CCS(=O)(=O)C1(c2cc(N3CCOC[C@@H]3C)nc(-c3ccc(NC(=S)NCCO)cc3)n2)CC1` [Example 88d, 1-[4-[4-(1-ethylsulfonylcyclopropyl)-6-[(3S)-3-methylmorpholin-4-yl]pyrimidin-2-yl]phenyl]-3-(2-hydroxyethyl)thiourea] the value was 4 nM.
The result for `CCNC(=O)Nc1ccc(-c2nc(N3CCOCC3C(N)=O)cc(C3(S(=O)(=O)c4ccccc4)CC3)n2)cc1` (stereo not drawn) [Example 89, 4-[6-[1-(Benzenesulfonyl)cyclopropyl]-2-[4-(ethylcarbamoylamino)phenyl]pyrimidin-4-yl]morpholine-3-carboxamide] reads 485 nM; that for `CCNC(=O)Nc1ccc(-c2nc(N3CCOCC3C(=O)N(C)C)cc(C3(S(=O)(=O)c4ccccc4)CC3)n2)cc1` (stereo not drawn) [Example 90, 4-[6-[1-(Benzenesulfonyl)cyclopropyl]-2-[4-(ethylcarbamoylamino)phenyl]pyrimidin-4-yl]-N,N-dimethylmorpholine-3-carboxamide], 18.9 nM; that for `C[C@H]1COC[C@H](C)N1c1cc(C2(S(C)(=O)=O)CC2)nc(-c2ccc(NC(=O)NC3CC3)cc2)n1` [Example 91, 3-Cyclopropyl-1-[4-[4-[(3S,5S)-3,5-dimethylmorpholin-4-yl]-6-(1-methylsulfonylyclopropyl)pyrimidin-2-yl]phenyl]urea], 4.98 nM.
For the compound `CNC(=O)Nc1ccc(-c2nc(N3[C@@H](C)COC[C@@H]3C)cc(C3(S(C)(=O)=O)CC3)n2)cc1` [Example 91a, 1-[4-[4-[(3S,5S)-3,5-dimethylmorpholin-4-yl]-6-(1-methylsulfonylcyclopropyl)pyrimidin-2-yl]phenyl]-3-methylurea], the IC50 was found to be 1.98 nM.
The result for `CCNC(=O)Nc1ccc(-c2nc(N3[C@@H](C)COC[C@@H]3C)cc(C3(S(C)(=O)=O)CC3)n2)cc1` [Example 91b, 1-[4-[4-[(3S,5S)-3,5-dimethylmorpholin-4-yl]-6-(1-methylsulfonylcyclopropyl)pyrimidin-2-yl]phenyl]-3-ethylurea] reads 5.21 nM; that for `C[C@H]1COC[C@H](C)N1c1cc(C2(S(C)(=O)=O)CC2)nc(-c2ccc(NC(=O)NCCF)cc2)n1` [Example 91c, 1-[4-[4-[(3S,5S)-3,5-dimethylmorpholin-4-yl]-6-(1-methylsulfonylcyclopropyl)pyrimidin-2-yl]phenyl]-3-(2-fluoroethyl)urea], 3.68 nM; that for `C[C@H]1COC[C@H](C)N1c1cc(C2(S(C)(=O)=O)CC2)nc(-c2ccc(NC(=O)NCCO)cc2)n1` [Example 91d, 1-[4-[4-[(3S,5S)-3,5-dimethylmorpholin-4-yl]-6-(1-methylsulfonylcyclopropyl)pyrimidin-2-yl]phenyl]-3-(2-hydroxyethyl)urea], 3.56 nM.
For `C[C@H]1COC[C@H](C)N1c1cc(C2(S(=O)(=O)C3CC3)CC2)nc(-c2ccc(NC(=O)NC3CC3)cc2)n1` [Example 92, 3-Cyclopropyl-1-[4-[4-(1-cyclopropylsulfonylcyclopropyl)-6-[(3S,5S)-3,5-dimethylmorpholin-4-yl]pyrimidin-2-yl]phenyl]urea] the value was 7.93 nM; for `C[C@H]1COC[C@H](C)N1c1cc(C2(S(=O)(=O)C3CC3)CC2)nc(-c2ccc(NC(=O)NCC(F)F)cc2)n1` [Example 92a, 1-[4-[4-(1-cyclopropylsulfonylcyclopropyl)-6-[(3S,5S)-3,5-dimethylmorpholin-4-yl]pyrimidin-2-yl]phenyl]-3-(2,2-difluoroethyl)urea], 5.51 nM; for `C[C@H]1COC[C@H](C)N1c1cc(C2(S(=O)(=O)C3CC3)CC2)nc(-c2ccc(NC(=O)Nc3cnn(C)c3)cc2)n1` [Example 92b, 1-[4-[4-(1-cyclopropylsulfonylcyclopropyl)-6-[(3S,5S)-3,5-dimethylmorpholin-4-yl]pyrimidin-2-yl]phenyl]-3-(1-methylpyrazol-4-yl)urea], 7.46 nM.
For `CNC(=O)Nc1ccc(-c2nc(N3[C@@H](C)COC[C@@H]3C)cc(C3(S(=O)(=O)C4CC4)CC3)n2)cc1` [Example 92c, 1-[4-[4-(1-cyclopropylsulfonylcyclopropyl)-6-[(3S,5)-3,5-dimethylmorpholin-4-yl]pyrimidin-2-yl]phenyl]-3-methylurea] the value was 7.8 nM.
